From US20210251934A1, “NOVEL COMPOSITIONS FOR THE TREATMENT OF INFLAMMATORY DISEASES” (SystaMedic Inc., priority 2018, published 2021)

Tested on: formalin induced pain responses
Experiment: Formalin Test (formalin induced pain responses, flinches and licks)
Assay type: in vivo, rat
Conditions: late phase 20 to 30 min after formalin
Experimental: Evaluation of analgesic and anti-inflammatory effects of compositions of claim 1 (See Hunskaar S and Hole K. (1987) Pain 30(1):103-14.)
In the Formalin Test a 5% solution of formaldehyde is injected subcutaneously to rat paw which produces a biphasic pain response over a test period of 60 minutes: an early phase lasting the first 5 min and a late phase lasting from 20 to 30 min after the injection of formalin. The early phase is due to a direct effect of […] on nociceptors and the late phase seems to be an inflammatory response with inflammatory pain that can be inhibited by anti-inflammatory drugs. For determining effects of compositions on these response phases two measurements were taken with three minutes interval for determining the number of flinches and licks per minute.
The treatments administered consists of (Human equivalent dose)
The above ingredients were suspended in 2.5 ml saline solution to feed by gavage one hour before injection of formalin and pain response was measured for 45 minutes. The data were collected in duplicate and average was taken.

Structure (SMILES): CC(=O)Oc1ccccc1C(=O)O [Aspirin]
- percent inhibition in formalin induced pain responses (human equivalent dose 100 mg): 30%

Structure (SMILES): C=C(C)[C@@H]1CCC(C)=C[C@H]1c1c(O)cc(CCCCC)cc1O [Cannabidiol (CBD), Cannabidiol]
- percent inhibition in formalin induced pain responses (human equivalent dose 3 mg): 8%
- percent inhibition in formalin induced pain responses (human equivalent dose 6.25 mg): 40%
- percent inhibition in formalin induced pain responses (human equivalent dose 12.5 mg): 40%
- percent inhibition in formalin induced pain responses (human equivalent dose 25 mg): 90%
- percent inhibition in formalin induced pain responses (human equivalent dose 50 mg): 90%

Structure (SMILES): O[C@H]1[C@H](O)[C@@H](O)[C@H](O)[C@@H](O)[C@H]1O [Inositol]
- percent inhibition in formalin induced pain responses (human equivalent dose 31.5 mg): 12%
- percent inhibition in formalin induced pain responses (human equivalent dose 60.2 mg): 30%
- percent inhibition in formalin induced pain responses (human equivalent dose 125 mg): 34%
- percent inhibition in formalin induced pain responses (human equivalent dose 250 mg): 40%
- percent inhibition in formalin induced pain responses (human equivalent dose 500 mg): 85%

Structure (SMILES): CC(=O)Nc1ccc(O)cc1 [Paracetamol]
- percent inhibition in formalin induced pain responses (human equivalent dose 500 mg): 50%
- percent inhibition in formalin induced pain responses (human equivalent dose 1000 mg): 70%
